For 15 compounds, IC50 results are on record in patent US10696692B2, “Amido-benzyl sulfone and sulfoxide derivates” (Forma TM, LLC, priority 2012, dated 2020).

The test system of one assay is A2780 cells. Kind of assay: Assay 2: In-Vitro Cell Proliferation Assay (A2780 cells, SRB readout, 72 hours).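 Further: viable cells counted via sulforhodamine B staining, absorbance at 570 nm, after 72 h exposure at 37 °C, DMSO 0.1% as control, media-only background subtracted.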 It counts as cell-based. The note with it: A2780 cells, 72 hours, SRB, read-out: Cell Proliferation (IC50).
In another assay the target is NAMPT (Homo sapiens (Human), UniProt P43490). Kind of assay: Assay 1: Biochemical Inhibition Assay (NAMPT enzymatic reaction, NMN quantified by mass spectrometry).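 Further: recombinant His-tagged human NAMPT preincubated with compound 15 min, then reacted 30 min at rt with 1 µM NAM, 100 µM PRPP, 2.5 mM ATP, NMN product read by RapidFire MS, normalized to L-Cystathionine internal standard.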 The note with it: read-out: Biochemical (IC50).

SMILES strings stand for the structures. Where two headings read alike, the source gives them in different places.

NAMPT, sequence (P43490 whole entry): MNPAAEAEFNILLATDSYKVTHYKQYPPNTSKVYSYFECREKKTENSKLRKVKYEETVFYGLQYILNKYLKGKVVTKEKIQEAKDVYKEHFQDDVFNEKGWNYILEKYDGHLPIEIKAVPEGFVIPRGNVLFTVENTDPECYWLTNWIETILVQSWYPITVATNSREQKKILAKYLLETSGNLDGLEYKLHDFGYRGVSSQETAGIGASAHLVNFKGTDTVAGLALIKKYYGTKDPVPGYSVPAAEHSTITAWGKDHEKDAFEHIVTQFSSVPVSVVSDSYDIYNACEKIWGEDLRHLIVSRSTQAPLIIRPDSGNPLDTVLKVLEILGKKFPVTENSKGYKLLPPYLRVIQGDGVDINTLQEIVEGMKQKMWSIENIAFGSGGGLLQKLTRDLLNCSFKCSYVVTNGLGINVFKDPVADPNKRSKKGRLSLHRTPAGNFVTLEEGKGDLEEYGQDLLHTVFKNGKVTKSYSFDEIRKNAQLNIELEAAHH

For `CC(C)(C)OC(=O)N1CCC2(CCCN2S(=O)(=O)c2ccc(CNC(=O)c3ccc4nccn4c3)cc2)CC1` [Example 185, 1-(4-{[(Imidazo[1,2-a]pyridine-6-carbonyl)-amino]-methyl}-benzenesulfonyl)-1,8-diaza-spiro[4.5]decane-8-carboxylic acid tert-butyl ester], the IC50 with A2780 cells (Homo sapiens, A2780, 72 h) turned out to be 118 nM; at NAMPT, 283 nM.
For `O=C(NCc1ccc(S(=O)(=O)N2CCC3(CCNCC3)C2)cc1)c1ccc2nccn2c1` [Example 256, N-[[4-(2,8-diazaspiro[4.5]decan-2-ylsulfonyl)phenyl]methyl] imidazo[1,2-a]pyridine-6-carboxamide] the same measures were 66.9 nM and 53.7 nM.
For `O=C(NCc1ccc(S(=O)(=O)N2C[C@H]3CCC(F)(F)[C@H]3C2)cc1)c1cnc2[nH]ncc2c1` (racemic) [Example 176, cis-1H-Pyrazolo[3,4-b]pyridine-5-carboxylic acid 4-(4,4-difluoro-hexahydro-cyclopenta[c]pyrrole-2-sulfonyl)-benzylamide] the same measures were 22.7 nM and 37.9 nM.
Consider `CC(C)(C)OC(=O)N1CCC2(CC1)CN(S(=O)(=O)c1ccc(CNC(=O)c3ccc4nccn4c3)cc1)CCO2` [Example 124, 4-(4-{[(Imidazo[1,2-a]pyridine-6-carbonyl)-amino]-methyl}-benzenesulfonyl)-1-oxa-4,9-diaza-spiro[5.5]undecane-9-carboxylic acid tert-butyl ester], for which the IC50 is 4.65 nM with A2780 cells (Homo sapiens, A2780, 72 h) and 40.5 nM at NAMPT.
For `O=C(NCc1ccc(S(=O)(=O)N2CCCCC2)cc1)c1cn2[nH]ccc2n1` [Example 1, 5H-Imidazo[1,2-b]pyrazole-2-carboxylic acid 4-(piperidine-1-sulfonyl)-benzylamide], in that order: 19100 nM and 8100 nM.
For `O=C(NCc1ccc(S(=O)(=O)C2CCCOC2)cc1)c1cc2cnccc2[nH]1` (stereo not drawn) [Example 266, N-[(4-tetrahydropyran-3-ylsulfonylphenyl)methyl]-1H-pyrrolo[3,2-c]pyridine-2-carboxamide] the same measures were 18.5 nM and 33.1 nM.
Regarding `O=C(NCc1ccc(S(=O)(=O)N2CC3CCOC3C2)cc1)c1cc2ccncc2o1` (stereo not drawn) [Example 302, N-[[4-(2,3,3a,4,6,6a-hexahydrofuro[2,3-c]pyrrol-5-ylsulfonyl)phenyl]methyl]furo [2,3-c]pyridine-2-carboxamide], the IC50 with A2780 cells (Homo sapiens, A2780, 72 h) came to 27.1 nM; on NAMPT, 41.8 nM.
Regarding `CCCN1CCC([S+]([O-])c2ccc(CNC(=O)c3cc4ccncc4o3)cc2)CC1` (stereo not drawn) [Example 382, N-[[4-[(1-propyl-4-piperidyl)sulfinyl]phenyl]methyl]furo[2,3-c]pyridine-2-carboxamide], the IC50 with A2780 cells and at NAMPT was 2000 nM throughout.
Take `O=C(NCc1ccc(S(=O)(=O)C2CCOCC2)cc1)c1cnc2nccn2c1` [Example 21, Imidazo[1,2-a]pyrimidine-6-carboxylic acid 4-(tetrahydro-pyran-4-sulfonyl)-benzylamide]: the IC50 in the assay with A2780 cells is 185 nM; on NAMPT, 8.7 nM.
`COCCNC1CCN(S(=O)(=O)c2ccc(CNC(=O)c3cnc4[nH]ncc4c3)cc2)CC1` [Example 39, 1H-Pyrazolo[3,4-b]pyridine-5-carboxylic acid 4-[4-(2-methoxy-ethylamino)-piperidine-1-sulfonyl]-benzylamide]: the IC50 in the assay on A2780 cells (Homo sapiens, A2780, 72 h) was 94.7 nM; on NAMPT, 83.5 nM.
In the case of `O=C(NCc1ccc(S(=O)(=O)N2CC3CNCC3C2)cc1)c1ccc2nccn2c1` (stereo not drawn) [Example 329, N-[[4-(2,3,3a,4,6,6a-hexahydro-1H-pyrrolo[3,4-c]pyrrol-5-yIsulfonyl)phenyl]methyl] imidazo[1,2-a]pyridine-6-carboxamide], the IC50 was 93.3 nM in the assay on A2780 cells (Homo sapiens, A2780, 72 h) and 79.3 nM at NAMPT.
For `CC(=O)N1CCC(S(=O)(=O)c2ccc(CNC(=O)c3cnc4[nH]ncc4c3)cc2)C1` (stereo not drawn) [Example 348, N-[[4-(1-acetylpyrrolidin-3-yl)sulfonylphenyl]methyl]-1H-pyrazolo[3,4-b]pyridine-5-carboxamide] the same measures were 2000 nM and 2000 nM.
For `CS(=O)(=O)N1CCC(S(=O)(=O)c2ccc(CNC(=O)c3cnc4[nH]ncc4c3)cc2)CC1` [Example 349, N-[[4-[(1-methylsulfonyl-4-piperidyl)sulfonyl]phenyl]methyl]-1H-pyrazolo[3,4-b]pyridine-5-carboxamide], in that order: 52.2 nM and 73.5 nM.
For `O=C(NCc1ccc(S(=O)(=O)C2CCCN(C(=O)c3ccccc3)C2)cc1)c1cnc2[nH]ncc2c1` (stereo not drawn) [Example 350, N-[[4-[(1-benzoyl-3-piperidyl)sulfonyl]phenyl]methyl]-1H-pyrazolo[3,4-b]pyridine-5-carboxamide] the same measures were 258 nM and 300 nM.
Take `O=C(NCc1ccc(S(=O)(=O)N2C[C@H]3C[C@@H]2C3)cc1)c1ccc2nccn2c1` [Example 159, Imidazo[1,2-a]pyridine-6-carboxylic acid 4-(2-aza-bicyclo[2.1.1]hexane-2-sulfonyl)-benzylamide]: the IC50 in the assay on A2780 cells (Homo sapiens, A2780, 72 h) was determined as 13.3 nM; at NAMPT, 12 nM.
